Assay results as given in PMC8079033, “Design, synthesis, anticancer evaluation, and molecular modelling studies of novel tolmetin derivatives as potential VEGFR-2 inhibitors and apoptosis inducers” (Journal of Enzyme Inhibition and Medicinal Chemistry, 2021).

What was measured:
Experiment in all cases: NCI 60-cell line one-dose antiproliferative screen (SRB)
Assay type in all cases: cell-based
CAKI-1 = details: Homo sapiens, read-out: growth inhibition % (GI%)
How it was run: (§1)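 One concentration (10 µM) is tested over a 48 h incubation. Growth is measured by protein staining with sulforhodamine B and is normalised to both the no-compound control and the cell number at compound addition.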

IGROV1 = details: Homo sapiens, IGROV-1, read-out: growth inhibition % (GI%)
How it was run: as §1

HCT-116 = details: Homo sapiens, read-out: growth inhibition % (GI%)
How it was run: as §1

MDA-MB-468 = details: Homo sapiens, read-out: growth inhibition % (GI%)
How it was run: as §1

RXF 393 = details: Homo sapiens, read-out: growth inhibition % (GI%)
How it was run: as §1

HOP-62 = details: Homo sapiens, read-out: growth inhibition % (GI%)
How it was run: as §1

HCT-15 = details: Homo sapiens, read-out: growth inhibition % (GI%)
How it was run: as §1

SF-539 = details: Homo sapiens, read-out: growth inhibition % (GI%)
How it was run: as §1

OVCAR-4 = details: Homo sapiens, read-out: growth inhibition % (GI%)
How it was run: as §1

SNB-75 = details: Homo sapiens, read-out: growth inhibition % (GI%)
How it was run: as §1

SF-268 = details: Homo sapiens, read-out: growth inhibition % (GI%)
How it was run: as §1

786-0 = details: Homo sapiens, read-out: growth inhibition % (GI%)
How it was run: as §1

OVCAR-5 = details: Homo sapiens, read-out: growth inhibition % (GI%)
How it was run: as §1

A549/ATCC = details: Homo sapiens, read-out: growth inhibition % (GI%)
How it was run: as §1

BT-5 = details: Homo sapiens, read-out: growth inhibition % (GI%)
How it was run: as §1

OVCAR-8 = details: Homo sapiens, read-out: growth inhibition % (GI%)
How it was run: as §1

SNB-19 = details: Homo sapiens, read-out: growth inhibition % (GI%)
How it was run: as §1

PC-3 = details: Homo sapiens, read-out: growth inhibition % (GI%)
How it was run: as §1

NCI/ADR-RES = details: Homo sapiens, read-out: growth inhibition % (GI%)
How it was run: as §1

MDA-MB-231/ATCC = details: Homo sapiens, read-out: growth inhibition % (GI%)
How it was run: as §1

SK-MEL-5 = details: Homo sapiens, read-out: growth inhibition % (GI%)
How it was run: as §1

MCF7 = details: Homo sapiens, read-out: growth inhibition % (GI%)
How it was run: as §1

CCRF-CEM = details: Homo sapiens, read-out: growth inhibition % (GI%)
How it was run: as §1

LOX IMVI = details: Homo sapiens, read-out: growth inhibition % (GI%)
How it was run: as §1

M14 = details: Homo sapiens, read-out: growth inhibition % (GI%)
How it was run: as §1

ACHN = details: Homo sapiens, read-out: growth inhibition % (GI%)
How it was run: as §1

SN 12 C = details: Homo sapiens, SN12C, read-out: growth inhibition % (GI%)
How it was run: as §1

HL-60 (TB) = details: Homo sapiens, read-out: growth inhibition % (GI%)
How it was run: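 Cells were plated and held 24 h at 37 °C, 5% CO2 before a single 10 µM dose was added, then exposed 48 h. Adherent cells were fixed with TCA (final 10%), suspension cells with TCA (final 16%), stained with sulforhodamine B and read at 515 nm.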

T-47D = details: Homo sapiens, T47D, read-out: growth inhibition % (GI%)
How it was run: as §1

MDA-MB-435 = details: Homo sapiens, read-out: growth inhibition % (GI%)
How it was run: as §1

MOLT-4 = details: Homo sapiens, read-out: growth inhibition % (GI%)
How it was run: as §1

NCI-H23 = details: Homo sapiens, read-out: growth inhibition % (GI%)
How it was run: as §1

K-562 = details: Homo sapiens, K562, read-out: growth inhibition % (GI%)
How it was run: as §1

NCI-H522 = details: Homo sapiens, read-out: growth inhibition % (GI%)
How it was run: as §1

SMILES | inhibition at 10 µM (CAKI-1) | inhibition at 10 µM (IGROV1) | inhibition at 10 µM (HCT-116) | inhibition at 10 µM (MDA-MB-468) | inhibition at 10 µM (RXF 393) | inhibition at 10 µM (HOP-62) | inhibition at 10 µM (HCT-15) | inhibition at 10 µM (SF-539) | inhibition at 10 µM (SNB-75) | inhibition at 10 µM (SF-268) | inhibition at 10 µM (OVCAR-5) | inhibition at 10 µM (A549/ATCC) | inhibition at 10 µM (BT-5) | inhibition at 10 µM (OVCAR-8) | inhibition at 10 µM (SNB-19) | inhibition at 10 µM (PC-3) | inhibition at 10 µM (NCI/ADR-RES) | inhibition at 10 µM (MDA-MB-231/ATCC) | inhibition at 10 µM (SK-MEL-5) | inhibition at 10 µM (MCF7) | other results
Cc1ccc(C(=O)c2ccc(CC(=O)NN=Cc3ccc(O)cc3O)n2C)cc1 [Compound 5c, N′-(2,4-Dihydroxybenzylidene)-2–(1-methyl-5–(4-methylbenzoyl)-1H-pyrrol-2-yl) acetohydrazide] | 53.4% | 58.3% | 65.1% | 53.2% | 50.3% | 59.4% | 83.2% | 55.6% | 68.9% | 62.7% | 36.6% | 53.4% | 49.2% | 51.6% | 50.6% | 38.9% | 65.4% | 48.6% | 60.7% | 60.8% | inhibition at 10 µM (OVCAR-4): 79.3%; inhibition at 10 µM (786-0): 56.6%; inhibition at 10 µM (CCRF-CEM): 83.2%; inhibition at 10 µM (LOX IMVI): 81.2%; inhibition at 10 µM (M14): 71.2%; inhibition at 10 µM (ACHN): 83.5%; inhibition at 10 µM (SN 12 C): 44.3%; inhibition at 10 µM (HL-60 (TB)): 95.5%; inhibition at 10 µM (T-47D): 49.8%; inhibition at 10 µM (MDA-MB-435): 36.9%; inhibition at 10 µM (MOLT-4): 87%; inhibition at 10 µM (NCI-H23): 57.6%; inhibition at 10 µM (K-562): 55.1%; inhibition at 10 µM (NCI-H522): 44.5%
Cc1ccc(C(=O)c2ccc(CC(=O)NN=Cc3cccc(O)c3O)n2C)cc1 [Compound 5b, N′-(2,3-Dihydroxybenzylidene)-2–(1-methyl-5–(4-methylbenzoyl)-1H-pyrrol-2-yl) acetohydrazide] | 62.7% | 48.8% | 69.2% | 45.1% | 70.3% | 50.1% | 84.3% | 66.2% | 74.6% | 62.8% | 27.4% | 41.3% | 54.3% | 61.4% | 54% | 40.8% | 80.9% | 54.7% | 65.4% | 84% | inhibition at 10 µM (OVCAR-4): 70.9%; inhibition at 10 µM (786-0): 23.6%; inhibition at 10 µM (CCRF-CEM): 86.9%; inhibition at 10 µM (LOX IMVI): 82.7%; inhibition at 10 µM (M14): 71.5%; inhibition at 10 µM (ACHN): 86.5%; inhibition at 10 µM (SN 12 C): 53.2%; inhibition at 10 µM (HL-60 (TB)): 95.9%; inhibition at 10 µM (T-47D): 74.1%; inhibition at 10 µM (MDA-MB-435): 38.9%; inhibition at 10 µM (MOLT-4): 88.8%; inhibition at 10 µM (NCI-H23): 54.6%; inhibition at 10 µM (K-562): 69.6%; inhibition at 10 µM (NCI-H522): 51.2%
Cc1ccc(C(=O)c2ccc(CC(=O)NN=Cc3c[nH]c4ccccc34)n2C)cc1 [Compound 5f, N′-((1H-Indol-3-yl)methylene)-2–(1-methyl-5–(4-methylbenzoyl)-1H-pyrrol-2-yl) acetohydrazide] | 17% | 15.2% | < 10% | 16.8% | < 10% | < 10% | 16.8% | < 10% | 25.5% | 10.5% | < 10% | 15.4% | < 10% | < 10% | 12.5% | < 10% | < 10% | 12.4% | < 10% | 27% | inhibition at 10 µM (OVCAR-4): 11.1%; inhibition at 10 µM (786-0): < 10%; inhibition at 10 µM (CCRF-CEM): 24.6%; inhibition at 10 µM (LOX IMVI): 16.5%; inhibition at 10 µM (M14): < 10%; inhibition at 10 µM (ACHN): 34.2%; inhibition at 10 µM (SN 12 C): < 10%; inhibition at 10 µM (HL-60 (TB)): 27%; inhibition at 10 µM (T-47D): 22.1%; inhibition at 10 µM (MDA-MB-435): < 10%; inhibition at 10 µM (MOLT-4): 16.5%; inhibition at 10 µM (NCI-H23): < 10%; inhibition at 10 µM (K-562): < 10%; inhibition at 10 µM (NCI-H522): 18.7%
Cc1ccc(C(=O)c2ccc(CC(=O)NN3C(=O)C=CC3=O)n2C)cc1 [Compound 7b, N-(2,5-Dioxo-2,5-dihydro-1H-pyrrol-1-yl)-2–(1-methyl-5–(4-methylbenzoyl)-1H-pyrrol-2-yl)acetamide] | 20.3% | 22.2% | 14% | < 10% | 13% | 10.4% | < 10% | < 10% | 16% | 12.3% | < 10% | 12.8% | < 10% | < 10% | 11% | 10.7% | 12.3% | 11.6% | < 10% | 13.2% | inhibition at 10 µM (OVCAR-4): < 10%; inhibition at 10 µM (786-0): < 10%; inhibition at 10 µM (CCRF-CEM): < 10%; inhibition at 10 µM (LOX IMVI): 11.1%; inhibition at 10 µM (M14): < 10%; inhibition at 10 µM (ACHN): 11.1%; inhibition at 10 µM (SN 12 C): 14.8%; inhibition at 10 µM (HL-60 (TB)): 10.6%; inhibition at 10 µM (T-47D): 25.5%; inhibition at 10 µM (MDA-MB-435): < 10%; inhibition at 10 µM (MOLT-4): 14%; inhibition at 10 µM (NCI-H23): 23.9%; inhibition at 10 µM (K-562): 16.5%; inhibition at 10 µM (NCI-H522): 15.9%
Cc1ccc(C(=O)c2ccc(CC(=O)NNC(=O)Nc3ccc(Cl)c(C(F)(F)F)c3)n2C)cc1 [Compound 8c, N-(4-Chloro-3-(trifluoromethyl)phenyl)-2–(2-(1-methyl-5–(4-methylbenzoyl)-1H-pyrrol-2-yl)acetyl)hydrazinecarboxamide] | 35.2% | 36.1% | < 10% | 17.5% | < 10% | 20% | 10.9% | < 10% | 35.7% | 26.3% | 10.9% | 21.7% | 11.4% | 10.9% | 25.8% | 22.4% | < 10% | 16.7% | 22.3% | 21.7% | inhibition at 10 µM (CCRF-CEM): < 10%; inhibition at 10 µM (LOX IMVI): 10.5%; inhibition at 10 µM (M14): 11.7%; inhibition at 10 µM (ACHN): < 10%; inhibition at 10 µM (SN 12 C): 10.5%; inhibition at 10 µM (T-47D): 13.8%; inhibition at 10 µM (MDA-MB-435): 20.7%; inhibition at 10 µM (MOLT-4): 19.2%; inhibition at 10 µM (NCI-H23): < 10%; inhibition at 10 µM (K-562): < 10%; inhibition at 10 µM (NCI-H522): 21.1%
